Assay results reported in patent EP1673349B1, “BENZIMIDAZOLE DERIVATIVES: PREPARATION AND PHARMACEUTICAL APPLICATIONS” (priority 2003, dated 2005).
Where two headings read alike, the source gives them in different places.

Columns and labels:
HDAC1 enzyme = HDAC1 enzyme (Homo sapiens, UniProt Q13547); experiment: In vitro HDAC assay (BIOMOL fluorescent-based HDAC activity assay), HDAC1; type: biochemical; conditions: Table 3; read-out: HDAC1 Enzyme Activity IC50
Description: (§1) Expression of GST-HDAC1 or HTGST-HDAC8 was done by infecting SF9 cells (Invitrogen Pte Ltd) with pDEST20-HDAC1 or pFASTBAC-GST-HDAC8 baculovirus at MOI=1 for 48 h. Soluble cell lysate was incubated with pre-equilibrated Glutathione Sepharose 4B beads (Amersham) at 4°C for 2 h. The beads were washed with PBS buffer for 3 times. The GST-HDAC1 protein or GST-HDAC8 protein was eluted by elution buffer containing 50 mM Tris, pH8.0, 150mM NaCl, 1% Triton X-100 and 10mM or 20mM reduced Glutathione. The purified GST-HDAC1 protein or purified GST-HDAC8 protein was dialyzed with HDAC storage buffer containing 10mM Tris, pH7.5, 100mM NaCl and 3mM MgCl2. 20% Glycerol was added to purified GST-HDAC1 protein or purified GST-HDAC8 before storage at -80°C.
(§2) The assay has been carried, out in 96 well format and the BIOMOL fluorescent-based HDAC activity assay has been applied. […] Flur de lys Developer was added and the reaction was incubated for 10 min. Briefly, deacetylation of the substrate sensitizes it to the developer, which then generates a fluorophore (symbol). The fluorophore is excited with 360 nm light and the emitted light (460 nm) is detected on a fluorometric plate reader (Tecan Ultra Microplate detection system, Tecan Group Ltd.).
(§3) The analytical software, Prism 3.0 has been used to generate IC50 from a series of data.

Colo205 = experiment: Cell-based proliferation assay (cyquant), Colo205; parameters: species or system human; conditions: Table 4, 96 h treatment;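 note: Colo205 cells exposed for 96 h to a range of compound concentrations, growth read by CyQUANT, GI50 taken from plotted dose-response curves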
Description: (§4) Human colon cancer cell lines (Colo205 and HCT116), human breast cancer cell lines (MDA-MB435 and MDA-MB231), and human lung cancer cell line (A549) were obtained from ATCC. […] MDA-MB435 cells were cultivated in DMEM containing 2 mM L-Glutamine, 5% FBS. HCT116 cells were cultivated in IMEM containing 2 mM L-Glutamine, 5% FBS. A549 and Colo205 cells were seeded in 96-wells plate at 2000 and 5000 cells per well respectively. MDA-MB435, HCT116, MDA-MB231 cells were seeded in 96-wells plate at 6000 cells per well. The plates were incubated at 37°C, 5% CO2, for 24 h. Cells, were treated with compounds at various concentration for 96 h. Cell growth was then monitored using cyquant cell proliferation assay (Invitrogen Pte Ltd). Dose response curves were plotted to determine GI50 values for the compounds using XL-fist.

HDAC8 enzyme = experiment: In vitro HDAC assay (BIOMOL fluorescent-based HDAC activity assay), HDAC8; type: biochemical, human; conditions: Table 3; read-out: HDAC8 Enzyme Activity IC50
Description: as §1, §2, §3

MDA-MB435 = experiment: Cell-based proliferation assay (cyquant), MDA-MB435; parameters: species or system human; conditions: Table 4, 96 h treatment;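 note: GI50 taken from dose–response curves over a range of compound concentrations, with cell growth quantified by the CyQUANT proliferation assay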
Description: as §4

Chain of HDAC1 enzyme (Q13547 whole entry): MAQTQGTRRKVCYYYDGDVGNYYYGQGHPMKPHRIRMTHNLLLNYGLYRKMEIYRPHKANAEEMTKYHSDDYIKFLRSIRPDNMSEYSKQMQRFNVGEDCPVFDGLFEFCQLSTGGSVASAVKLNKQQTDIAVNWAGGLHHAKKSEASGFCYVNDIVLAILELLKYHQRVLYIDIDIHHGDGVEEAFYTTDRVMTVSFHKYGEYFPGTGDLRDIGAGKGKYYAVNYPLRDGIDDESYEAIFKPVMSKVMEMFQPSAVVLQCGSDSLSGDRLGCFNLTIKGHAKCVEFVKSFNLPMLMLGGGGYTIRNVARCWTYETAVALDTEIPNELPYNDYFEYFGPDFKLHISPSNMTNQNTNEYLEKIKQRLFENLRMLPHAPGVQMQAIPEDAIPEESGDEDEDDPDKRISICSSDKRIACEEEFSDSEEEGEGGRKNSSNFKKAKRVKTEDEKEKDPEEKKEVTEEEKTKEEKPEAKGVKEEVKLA

IC50 (HDAC1 enzyme) [nM]	IC50 (HDAC8 enzyme) [nM]	SMILES	further results
1690	–	CC(C)OCCCn1c(CCc2ccccc2)nc2cc(/C=C/C(=O)NO)ccc21 [Compound 80]	–
–	192	CCn1c(C)nc2cc(/C=C/C(=O)NO)ccc21 [Compound 43, N-Hydroxy-3-(1-Ethyl-2-methyl-1H-benzimidazol-5-yl]-acrylamide]	GI50 (Colo205; Homo sapiens, COLO 205): 9180 nM; GI50 (MDA-MB435; Homo sapiens, MDA-MB-435): 8620 nM
385	141	O=C(/C=C/c1ccc2c(c1)nc(-c1ccccn1)n2CCCO)NO [Compound 13, N-Hydroxy-3-[1-(3-hydroxy-propyl)-2-(2-pyridyl)-1H-benzimidazol-5-yl]-acylamide]	–
196	–	Cn1c(CN(Cc2ccccc2)Cc2ccccc2)nc2cc(/C=C/C(=O)NO)ccc21 [Compound 61]	–
–	–	CN(C)CCCCn1c(CCc2ccccc2)nc2cc(/C=C/C(=O)NO)ccc21 [Compound 57, N-Hydroxy-3-[1-(4-dimethylamino-butyl)-2-phenethyl-1H-benzimidazol-5-yl]-acrylamide]	GI50 (Colo205; Homo sapiens, COLO 205, 96 h): 1110 nM; GI50 (MDA-MB435; Homo sapiens, MDA-MB-435): 1390 nM
–	412	O=C(/C=C/c1ccc2c(c1)ncn2Cc1ccccc1)NO [Compound 35, N-Hydroxy-3-(1-Benzyl-1H-benzimidazol-5-yl)-acrylamide]	GI50 (Colo205; Homo sapiens, COLO 205, 96 h): 1890 nM; GI50 (MDA-MB435; Homo sapiens, MDA-MB-435): 6760 nM
570	–	O=C(/C=C/c1ccc2c(c1)nc(CCc1ccccc1)n2CCO)NO [Compound 77]	–
–	–	O=C(/C=C/c1ccc2c(c1)ncn2CCc1ccccn1)NO [Compound 42, N-Hydroxy-3-[1-(2-pyridin-2-yl-ethyl)-1H-benzimidazol-5-yl]-acrylamide]	GI50 (Colo205; Homo sapiens, COLO 205): 14400 nM; GI50 (MDA-MB435; Homo sapiens, MDA-MB-435): 15800 nM
–	329	O=C(/C=C/c1ccc2c(c1)nc(CCc1ccccc1)n2CCc1cccnc1)NO [Compound 27, N-Hydroxy-3-(2-phenethyl-1-(2-pyridin-3-yl-ethyl)-1H-benzimidazol-5-yl]-acrylamide]	GI50 (Colo205; Homo sapiens, COLO 205): 2230 nM; GI50 (MDA-MB435; Homo sapiens, MDA-MB-435): 3440 nM
54	–	CN(C)CC(C)(C)Cn1c(CCc2ccc(F)cc2)nc2cc(/C=C/C(=O)NO)ccc21 [Compound 84]	–
1330	234	CC(C)Cc1nc2cc(/C=C/C(=O)NO)ccc2n1CCc1ccccn1 [Compound 22]	–
158	–	O=C(/C=C/c1ccc2c(c1)nc(CCc1ccccc1)n2CCCn1ccnc1)NO [Compound 56, N-Hydroxy-3-[1-(-3-imidazol-1-yl-propyl)-2-phenethyl-1H-benzimidazol-5-yl]-acrvlamide]	–
1600	–	CN1CCN(CCCn2c(CCc3ccccc3)nc3cc(/C=C/C(=O)NO)ccc32)CC1 [Compound 81]	–
–	883	O=C(/C=C/c1ccc2c(c1)nc(-c1ccncc1)n2CCO)NO [Compound 10, N-Hydroxy-3-[1-(2-hydroxy-ethyl)-2-(4-pyridyl)-1H-benzimidazol-5-yl]-acrylamide]	–
438	290	O=C(/C=C/c1ccc2c(c1)nc(CCc1ccccc1)n2CCc1ccccn1)NO [Compound 18]	–
–	–	CC(C)(C)Cn1c(CCc2ccccc2)nc2cc(/C=C/C(=O)NO)ccc21 [Compound 75]	GI50 (Colo205; read-out: GI50 (Colo 205)): 2880 nM
167	–	COc1cc(Cn2c(CCc3ccccc3)nc3cc(CCC(=O)NO)ccc32)cc(OC)c1OC [Compound 45]	GI50 (Colo205; read-out: GI50 (Colo 205)): 2410 nM; GI50 (MDA-MB435): 1900 nM
146	–	Cn1c(CNC(=O)Cc2ccc(F)cc2)nc2cc(/C=C/C(=O)NO)ccc21 [Compound 69]	–
195	159	CC(Cc1nc2cc(/C=C/C(=O)NO)ccc2n1CCc1cccnc1)c1ccccc1 (stereo not drawn) [Compound 41]	–
234	–	COc1ccc(CNCc2nc3cc(/C=C/C(=O)NO)ccc3n2C)cc1 [Compound 62]	–
167	–	CCn1c(CCNS(=O)(=O)c2ccccc2)nc2cc(/C=C/C(=O)NO)ccc21 [Compound 71]	–
2210	1890	O=C(O)CCn1c(CCc2ccccc2)nc2cc(/C=C/C(=O)NO)ccc21 [Compound 32, 3-[5-(2-Hydrocarbamoyl-vinyl)-2-phenethyl-benzimidazol-1-yl]-propionic acid]	–
–	–	O=C(/C=C/c1ccc2[nH]c(CCc3ccccc3)nc2c1)NO [Compound 50, N-Hydroxy-3-(2-phenethyl-1H-benzimidazol-5-yl)-acrylamide]	GI50 (Colo205; Homo sapiens, COLO 205, 96 h): 4290 nM; GI50 (MDA-MB435; Homo sapiens, MDA-MB-435): 5190 nM
286	454	O=C(/C=C/c1ccc2c(c1)nc(CCc1ccccc1)n2CC(O)CO)NO (stereo not drawn) [Compound 8]	–
–	–	O=C(/C=C/c1ccc2c(c1)nc(CCc1ccccc1)n2CCc1ccccc1)NO [Compound 26, N-Hydroxy-3-(1,2-Diphenethyl-1H-benzimidazol-5-yl]-acylamide]	GI50 (Colo205; Homo sapiens, COLO 205, 96 h): 8790 nM; GI50 (MDA-MB435; Homo sapiens, MDA-MB-435): 6670 nM
1260	–	C=CCn1c(CCc2ccccc2)nc2cc(/C=C/C(=O)NO)ccc21 [Compound 79]	–

IC50 (HDAC1 enzyme) [nM]	IC50 (HDAC8 enzyme) [nM]	SMILES	further results
–	–	Cn1c(CCc2ccccc2)nc2cc(/C=C/C(=O)NO)ccc21 [Compound 48, N-Hydroxy-3-(1-methyl-2-phenethyl-1H-benzimidazol-5-yl)-acrylamide]	GI50 (Colo205; Homo sapiens, COLO 205, 96 h): 1450 nM; GI50 (MDA-MB435; Homo sapiens, MDA-MB-435): 1780 nM
206	313	COCCCn1c(CCc2ccccc2)nc2cc(/C=C/C(=O)NO)ccc21 [Compound 15]	–
–	–	Cn1c(CNCc2ccccc2)nc2cc(/C=C/C(=O)NO)ccc21 [Compound 60, N-Hydroxy-3-[2-(benzylamino-methyl)-1-methyl-1H-benzimidazol-5-yl]-acrylamide]	GI50 (Colo205; Homo sapiens, COLO 205): 2470 nM; GI50 (MDA-MB435; Homo sapiens, MDA-MB-435): 3600 nM
71	–	CN(C)CC(C)(C)Cn1c(CCCc2ccccc2)nc2cc(/C=C/C(=O)NO)ccc21 [Compound 83]	–
–	–	CN(C)CCCn1c(CCc2ccccc2)nc2cc(/C=C/C(=O)NO)ccc21 [Compound 63, N-Hydroxy-3-[1-(3-dimethylamino-propyl)-2-phenethyl-1H-benzimidazol-5-yl]-acrylamide]	GI50 (Colo205; Homo sapiens, COLO 205, 96 h): 2000 nM
–	–	O=C(/C=C/c1ccc2c(c1)nc(CCc1ccccc1)n2CCCN1CCCC1)NO [Compound 82, N-Hydroxy-3-[2-phenethyl-1-(3-pyrrolidin-1-yl-propyl)-1H-benzimidazol-5-yl]-acrylamide]	GI50 (Colo205; Homo sapiens, COLO 205, 96 h): 720 nM
> 100000	–	O=C(/C=C/c1ccc2c(c1)nc(CCc1ccccc1)n2CCCCCO)NO [Compound 78]	–
–	–	CN(C)CC(C)(C)Cn1c(CCc2cccnc2)nc2cc(/C=C/C(=O)NO)ccc21 [Compound 86, N-Hydroxy-3-[1-(3-Dimethylamino-2,2-dimethyl-propyl)-2-(2-pyridin-3-yl-ethyl)-1H-benzimidazol-5-yl]acrylamide]	GI50 (Colo205; Homo sapiens, COLO 205): 13100 nM
166	–	O=C(/C=C/c1ccc2c(c1)ncn2CCN1CCCCC1)NO [Compound 90]	–
–	–	CCn1c(CCNCc2ccccc2)nc2cc(/C=C/C(=O)NO)ccc21 [Compound 74, N-Hydroxy-3-[2-(2-benzylamino-ethyl)-1-ethyl-1H-benzimidazol-5-yl]-acrylamide]	GI50 (Colo205; Homo sapiens, COLO 205): 2070 nM
–	846	CC(C)Cc1nc2cc(/C=C/C(=O)NO)ccc2n1Cc1ccccc1 [Compound 34, N-Hydroxy-3-(1-Benzyl-2-isobutyl-1H-benzimidazol-5-yl)-acrylamide]	–
–	–	CCn1c(CCc2ccccc2)nc2cc(/C=C/C(=O)NO)ccc21 [Compound 38, N-Hydroxy-3-(1-Ethyl-2-phenethyl-1H-benzimidazol-5-yl)-acrylamide]	GI50 (Colo205; Homo sapiens, COLO 205, 96 h): 1470 nM; GI50 (MDA-MB435; Homo sapiens, MDA-MB-435): 1530 nM
923	–	CCn1c(CCNC(=O)Cc2ccccc2)nc2cc(/C=C/C(=O)NO)ccc21 [Compound 70]	GI50 (Colo205; read-out: GI50 (Colo 205)): 2900 nM
1670	–	CC(C)c1nc2cc(/C=C/C(=O)NO)ccc2n1CCCO [Compound 46]	–
297	–	COc1cc(Cn2c(CCc3ccccc3)nc3cc(C4CC4C(=O)NO)ccc32)cc(OC)c1OC (stereo not drawn) [Compound 88, 2-[2-Phenethyl-1-(3,4,5-trimethoxy-benzyl)-1H-benzimidazol-5-yl]-cyclopropanecarboxylic acid hydroxyamide]	GI50 (Colo205; Homo sapiens, COLO 205, 96 h): 1260 nM
49100	34000	CC(C)Cc1nc2cc(CCC(=O)NO)ccc2n1CCCO [Compound 29, N-Hydroxy-3-[1-(3-Hydroxy-propyl)-2-isobutyl-1H-benzimidazol-5-yl]-propionamide]	–
–	–	Cn1c(CCCc2ccccc2)nc2cc(/C=C/C(=O)NO)ccc21 [Compound 52, N-Hydroxy-3-[1-methyl-2-(3-phenyl-propyl)-1H-benzimidazol-5-yl]-acrylamide]	GI50 (Colo205; Homo sapiens, COLO 205): 2040 nM; GI50 (MDA-MB435; Homo sapiens, MDA-MB-435): 3580 nM
–	–	CCn1cnc2cc(/C=C/C(=O)NO)ccc21 [Compound 39, N-Hydroxy-3-(1-Ethyl-1H-benzimidazol-5-yl)-acrylamide]	GI50 (Colo205; Homo sapiens, COLO 205, 96 h): 11700 nM; GI50 (MDA-MB435; Homo sapiens, MDA-MB-435): 12000 nM
294	–	CCn1c(CN(Cc2ccccc2)Cc2ccccc2)nc2cc(/C=C/C(=O)NO)ccc21 [Compound 68]	–
560	–	CCn1c(CCNC(=O)COc2ccccc2)nc2cc(/C=C/C(=O)NO)ccc21 [Compound 73]	–
206	300	O=C(/C=C/c1ccc2c(c1)nc(COCc1ccccc1)n2CCc1cccnc1)NO [Compound 28]	–
3300	441	O=C(NO)c1ccc2c(c1)nc(CCc1ccccc1)n2CCCO [Compound 40, 1-(3-Hydroxy-prorpyl)-2-phenethyl-1H-benzimidazol-5-carboxylic acid hydroxyamide]	–
–	401	COc1ccc(-c2nc3cc(/C=C/C(=O)NO)ccc3n2CCO)cc1 [Compound 5, N-Hydroxy-3-[1-(2-hydroxy-ethyl)-2-(4-methoxy-phenyl)-1H-benzimidazole-5-yl]-acrylamide]	GI50 (Colo205; Homo sapiens, COLO 205): > 100000 nM
–	–	CCCn1cnc2cc(/C=C/C(=O)NO)ccc21 [Compound 37, N-Hydroxy-3-(1-propyl-1H-benzimidazol-5-yl)-acrylamide]	GI50 (Colo205; Homo sapiens, COLO 205): 7820 nM; GI50 (MDA-MB435; Homo sapiens, MDA-MB-435): 7900 nM
–	255	CCN(CC)CCn1c(CCc2ccccc2)nc2cc(/C=C/C(=O)NO)ccc21 [Compound 66, N-Hydroxy-3-[1-(2-diethylamino-ethyl)-2-phenethyl-1H-benzimidazol-5-yl]-acrylamide]	GI50 (Colo205; Homo sapiens, COLO 205, 96 h): 220 nM

SMILES	IC50 (HDAC1 enzyme) [nM]	IC50 (HDAC8 enzyme) [nM]	further results
O=C(/C=C/c1ccc2c(c1)nc(CCc1ccccc1)n2C1CCN(Cc2ccccc2)CC1)NO [Compound 76]	1030	–	–
